The subject of data set [1] is α9-nAChR promoter. In words: α9-nAChR promoter luciferase activity assay in MCF-7 cells. As to conditions: 24-h treatment, Nic 10 μM or E2 10 nM, vehicle = one-fold. The data set is classed as cell-based, human. The protocol: All α9-nAChR promoter—luciferase gene fusions were made in the pGL3-Basic vector (Promega, Madison, Wis., USA) by introducing the appropriate α9-nAChR promoter fragments into the polylinker upstream of the luciferase gene. These fragments were generated with restriction enzymes and cloned directly into pGL3-Basic or subcloned first in pBluescript and then transferred to pGL3-Basic. Deletion analysis of the most promoter-proximal region was performed by generating either appropriate restriction enzyme fragments or PCR fragments with suitable sense oligonucleotides and an antisense primer (5′-[…]-3′ (SEQ ID NO:1)) that anneals to the pGL3-Basic vector downstream of the site of transcription initiation.
MCF-7 cells were plated in 6-well plates. Cells were transiently cotransfected the next day with 1.5 μg of PGL3-Basic plasmid containing the full-length α9-nAChR promoter and 0.1 μg of the RLTK plasmid (Promega) using an MP-100 microporator (Digital Bio), according to the manufacturer's instructions. After incubation for 24 h, the medium was changed to culture medium containing 10% FBS or 0.1% FB S with or without Nic. Cells were lysed 24 h later with 1× Reporter Lysis Buffer (Promega) and stored frozen at −20° C. overnight. Luciferase activity was determined by testing 50 μL of the cell lysate and 50 μL of the Luciferase Assay Reagent (Promega) using a HIDEX Chameleon Microplate Reader. Relative luciferase units were normalized to renilla luciferase from the same cell lysates. Each luciferase assay experiment was performed three times.

For data set [2], the system named is α9-nAChR protein. The data set can be described thus: α9-nAChR protein levels by immunoblotting in MCF-7 cells. The data set is classed as cell-based, human. On the procedure:
(§1) Human mammary gland epithelial adenocarcinomas (MCF7, MDA-MB-231, AU-565, MDA-MB-453, and BT-483) and normal human mammary gland epithelial fibrocystic cell lines (MCF-10A and HBL-100) were purchased from ATCC (American Type Culture Collection, Manassas, Va., USA). MCF-7, MDA-MB-231, and MDA-MB-453 cells were maintained in DMEM, whereas BT-483 cells were maintained in RPMI-1640. Cell growth, proliferation, and viability were determined by the 3-(4,5-dimethylthiazol-2-yl)-2,5-diphenyltetrazolium (MTT) assay. The formazan product was measured by absorbance at 540 nm.
(§2) To prepare protein samples, cells were washed once with ice-cold PBS and lysed on ice in cell lysis buffer (50 mM Tris-HCl, pH 8.0, 120 mM […], 0.5% Nonidet P-40, 100 mM sodium fluoride, and 200 μM sodium orthovanadate) containing protease inhibitors as described previously (Shih, Y. L., Liu, H. C., Chen, C. S., Hsu, C. H. et al., J. Agric. Food Chem. 2010, 58, 235-241). Protein (50 μg) from each sample was resolved by 12% SDS-polyacrylamide gel electrophoresis, transferred, and analyzed by Western blotting. Antibodies were purchased from the following vendors: anti-total AKT and protein A/G agarose beads were obtained from Santa Cruz Biotechnology (Santa Cruz, Calif., USA); anti-GAPDH and anti-α9-nAChR antibodies were from Abcam (Cambridge, UK); antiphospho AKT (Ser^473), anti-c-Jun, and anti-c-Fos were from Cell Signaling Technology (Beverly, Mass., USA). The secondary antibodies, alkaline phosphatase-coupled anti-mouse, and anti-rabbit IgG were purchased from Santa Cruz Biotechnology. The specific protein complexes were identified with the chromogenic substrates nitro blue tetrazolium, and 5-bromo-4-chloro-3-indolyl-phosphate from KPL (Gaithersburg, Md., USA). In each experiment, proteins were also probed with anti-GAPDH antibodies as a protein-loading control.
In general terms: A western blot detects proteins with antibodies after separation by electrophoresis.

Data set [3] relates to α9-nAChR mRNA. In words: α9-nAChR mRNA by RT-PCR / real-time PCR in MCF-7 cells. In kind it is cell-based, human. On the procedure:
Total RNA was isolated from human cell lines using TRIzol (Invitrogen, Carlsbad, Calif., USA) according to the manufacturer's protocol. The α9-nAChR subunit-specific primers were synthesized by MB Mission BioTech (Taipei, Taiwan) as described in the previous reports (Chen, C. S., Lee, C. H., Hsieh, C. D., Ho, C. T. et al., Breast Cancer Res. Treat. 2010; Shih, Y. L., Liu, H. C., Chen, C. S., Hsu, C. H. et al., J. Agric. Food Chem. 2010, 58, 235-241). The PCR amplicons were analyzed on 1.2% agarose gels (Amresco, Solon, Ohio, USA) stained with ethidium bromide. The α9-nAChR mRNA intensity was measured and normalized to β-glucuronidase expression. Pictures of the bands were taken using an INFINITY-α digital imaging system (Vilber Lourmat, France), and band intensities were determined using PhotoCapt Version 11.01 software.
Background: In qPCR the cycle at which signal appears reflects the starting amount.

The test system of data set [4] is p-AKT (Ser^473). The data set can be described thus: phosphorylated AKT by immunoblotting in MCF-7 cells. As to conditions: Nic 10 μM or E2 10 nM, 24 h. In kind it is cell-based, human. On the procedure: as §2
Data set [5] concerns AP-1. In words: ChIP assay of AP-1 binding to the α9-nAChR promoter in MCF-7 cells. The data set is classed as cell-based, human. The following applies: 24 h after Nic 10 μM. On the procedure: Chromatin immunoprecipitation (ChIP) assays of cultured cells were performed as described previously (Chen, C. S., Lee, C. H., Hsieh, C. D., Ho, C. T. et al., Breast Cancer Res. Treat. 2010; Shih, Y. L., Liu, H. C., Chen, C. S., Hsu, C. H. et al., J. Agric. Food Chem. 2010, 58, 235-241). Briefly, after various regimens of Nic treatment, the cells were fixed with a final concentration of 1% formaldehyde directly added to the cell culture medium at 25° C. for 15 min. The crosslinking reaction was terminated with 0.125 M glycine for 5 min, and the cells were collected into a new Eppendorf tube. The cell lysate was sonicated three times with 10 s bursts to yield input DNA enriched for fragments around 1000 bp in size. A c-Jun (AP-1) antibody (Santa Cruz Biotechnology) was used for the immunoprecipitation reactions. Primers, which detect the a9-nAChR promoter regions, amplified a region from −960 to −1 for 32 cycles (forward: 5′-ATGCAATG CAAGCCTGAGCT-3′ (SEQ ID NO:2) and reverse: 5′-TATA-[…]-3′ (SEQ ID NO:3)). The PCR products were then separated and analyzed by agarose gel electrophoresis.

The test system of data set [6] is MCF-7 cells. In words: Cell proliferation (MTT assay) in MCF-7 cells. The data set is classed as cell-based, human. The following applies: Nic 10 μM. On the procedure:
as §1
On the technique in general: Formazan colour is commonly taken as a measure of viable cells.

In data set [7] the test system is MCF-10A cells. In words: Cell proliferation (MTT assay) in normal MCF-10A cells. The data set is classed as cell-based, human. As to conditions: Nic 10 μM or EGCG 10-25 μM. The protocol:
as §1

The conditions of data set [8]: cited from earlier work.
In data set [9] the target is T1, α9-nAChR (Homo sapiens, UniProt Q9UGM1).
T1 construct: breast cancer cell proliferation induced by Nic could be mediated through endogenous α9-nAChR; endogenous in cells; host or cells: MCF-7 cell monolayers: wild type, scramble control (Sc) and α9-nAChR siRNA knockdown (Si) clones
The following applies: MCF-7 cells, previous results, cited from earlier work.

Like-named read-outs stand apart in the source and are kept apart here.

T1 sequence (Q9UGM1 26-479 limits assumed): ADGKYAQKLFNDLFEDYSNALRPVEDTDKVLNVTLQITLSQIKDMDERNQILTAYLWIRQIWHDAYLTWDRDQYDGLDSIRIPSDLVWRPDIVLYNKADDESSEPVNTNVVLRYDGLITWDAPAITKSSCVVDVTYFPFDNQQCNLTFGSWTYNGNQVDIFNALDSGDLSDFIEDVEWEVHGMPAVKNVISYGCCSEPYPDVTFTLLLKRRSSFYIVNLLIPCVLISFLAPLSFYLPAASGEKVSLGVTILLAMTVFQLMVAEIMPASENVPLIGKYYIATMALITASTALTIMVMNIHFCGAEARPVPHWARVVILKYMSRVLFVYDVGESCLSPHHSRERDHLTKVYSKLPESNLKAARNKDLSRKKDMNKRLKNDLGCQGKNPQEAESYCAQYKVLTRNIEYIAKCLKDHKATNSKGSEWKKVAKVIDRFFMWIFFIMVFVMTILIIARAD

For the compound `C[C@]12CC[C@@H]3c4ccc(O)cc4CC[C@H]3[C@@H]1CC[C@@H]2O` [E2, estradiol], the “induction of full-length α9-nAChR promoter luciferase activity” value in data set [1] is listed as 2.3 fold.
`O=c1cc(N2CCOCC2)oc2c(-c3ccccc3)cccc12` [LY294002]: the “Nic- and E2-induced upregulation of α9-nAChR protein after inhibitor pretreatment” value in [2] (MCF-7, 24 h pretreatment (LY294002 25 μM or EGCG 10 μM), then Nic 10 μM or E2 10 nM 24 h) is “not significantly inhibited”.
For the compound `CN(CCCC(=O)c1cccnc1)N=O` [NNK, 4-(methylnitrosamino)-1-(3-pyridyl)-1-butanone], the α9-nAChR protein level entry in data set [2] (MCF-7, Nic 0.1-10 μM, NNK 0.1-10 μM or E2 1-200 nM, 24 h, dose-dependent) was “significantly induced”.
Regarding `CN1CCCC1c1cccnc1` (centres unmarked) [Nic, nicotine], in [2], the “time after Nic treatment at which significant increase in α9-nAChR protein level was detected” value is recorded as 6 h and the α9-nAChR protein level result is listed as “significantly induced”. Moreover, the “time after Nic treatment at which significant increase in α9-nAChR mRNA level was detected” value in [3] (Nic 1 μM time course) worked out at 6 h. Further, the “α9-nAChR mRNA expression (real-time PCR)” value in [3] (Nic 10 μM or E2 10 nM, 24 h) is listed as “significantly upregulated”. The “levels of p-AKT (Ser^473)” value in [4] was “significantly increased”. Besides, the “induction of full-length α9-nAChR promoter luciferase activity” value in data set [1] turned out to be 41.8 fold. The “binding of AP-1 to the α9-nAChR promoter” value in data set [5] was “increased binding”. For the same compound, in data set [6] (MCF-7 (C) and (Sc)), the “cellular proliferation rates in wild-type (C) and scrambled vector control (Sc) cells” value is reported as “significantly increased”. The “breast cancer cell growth” value in [6] (MCF-7, 24 h) is “significantly stimulated”. Besides, in data set [6] (MCF-7 α9-nAChR (Si)), the “Nic-induced growth effects in α9-nAChR siRNA knockdown (Si) cells” value is “almost completely attenuated”. Also, in data set [7], the “cell number in normal breast epithelial cells” value is “no changes”. In [8] (in vivo), the “Nic concentration in gastric juices” value is above 800 ng/mL, the “Nic concentration in plasma” value was “about 15 ng/mL”, the “Nic concentration in saliva” value is given as above 1300 ng/mL and the “saliva concentration of nicotine” value is listed as 1 mM. Further, in data set [8] (in vivo), the “serum concentration of nicotine” value was 10 to 100 µM and the “steady-state serum concentration of nicotine” value is recorded as 200 nM. Further, the “inhaled Nic absorbed systemically during smoking” value in data set [8] (studies using ^14C-Nic) was 80-90%.
Broadly, the Kd is a measure of binding affinity in units of concentration. On to `CN1CCCC1c1cccnc1` [[^3H]-Nic, L-(−)-[N-methyl-^3H]-Nic], for which the dissociation constant Kd in data set [9] (read-out: dissociation constant (Kd) of [^3H]-Nic binding) is 3 nM.
As to `[3H]CN1CCCC1c1cccnc1` [[^3H]-Nic, L-(−)-[N-methyl-^3H]-Nic], the “time at which maximum binding activity is attained” value in data set [9] is recorded as 60 min.

The record behind these values is patent publication US20120208873A1, “TEA POLYPHENOLS PRODUCTS FOR CEASING SMOKING AND TREATING AND/OR PREVENTING NICOTINE OR NICOTINE-DERIVED COMPOUNDS OR ESTROGEN INDUCED BREAST CANCER” (priority 2011, published 2012).
